Starred links: 1 amine or outer side, 2 acyl side, 3 side chain; linkers in the order of their positions; H or OH if unused. Positions of bridges follow the written chain, without caps; N, C: chain ends. Non-standard residues stand in square brackets, D forms with d. Residues, ends and D or L forms follow the SMILES beside them. hCys = N[C@@H](CCS)C(=O)O; Dab = NCC[C@H](N)C(=O)O; X2 = O=C(C[*:1])[*:2]
Assays:
human integrin αvβ5 = human integrin αvβ5 (Homo sapiens, UniProt P06756+P18084); assay: Evaluation of integrin binding property (surface plasmon resonance, Biacore 3000, immobilized cyclic peptide); conditions: SPR, 25° C., HEPES buffer with 5 mM magnesium chloride, integrin 30-1,000 nM; read-out: Performance evaluation: Binding activity (dissociation constant between the cyclic peptide and human integrin αvβ5)
human integrin αvβ5, sequence (P06756 31-1048): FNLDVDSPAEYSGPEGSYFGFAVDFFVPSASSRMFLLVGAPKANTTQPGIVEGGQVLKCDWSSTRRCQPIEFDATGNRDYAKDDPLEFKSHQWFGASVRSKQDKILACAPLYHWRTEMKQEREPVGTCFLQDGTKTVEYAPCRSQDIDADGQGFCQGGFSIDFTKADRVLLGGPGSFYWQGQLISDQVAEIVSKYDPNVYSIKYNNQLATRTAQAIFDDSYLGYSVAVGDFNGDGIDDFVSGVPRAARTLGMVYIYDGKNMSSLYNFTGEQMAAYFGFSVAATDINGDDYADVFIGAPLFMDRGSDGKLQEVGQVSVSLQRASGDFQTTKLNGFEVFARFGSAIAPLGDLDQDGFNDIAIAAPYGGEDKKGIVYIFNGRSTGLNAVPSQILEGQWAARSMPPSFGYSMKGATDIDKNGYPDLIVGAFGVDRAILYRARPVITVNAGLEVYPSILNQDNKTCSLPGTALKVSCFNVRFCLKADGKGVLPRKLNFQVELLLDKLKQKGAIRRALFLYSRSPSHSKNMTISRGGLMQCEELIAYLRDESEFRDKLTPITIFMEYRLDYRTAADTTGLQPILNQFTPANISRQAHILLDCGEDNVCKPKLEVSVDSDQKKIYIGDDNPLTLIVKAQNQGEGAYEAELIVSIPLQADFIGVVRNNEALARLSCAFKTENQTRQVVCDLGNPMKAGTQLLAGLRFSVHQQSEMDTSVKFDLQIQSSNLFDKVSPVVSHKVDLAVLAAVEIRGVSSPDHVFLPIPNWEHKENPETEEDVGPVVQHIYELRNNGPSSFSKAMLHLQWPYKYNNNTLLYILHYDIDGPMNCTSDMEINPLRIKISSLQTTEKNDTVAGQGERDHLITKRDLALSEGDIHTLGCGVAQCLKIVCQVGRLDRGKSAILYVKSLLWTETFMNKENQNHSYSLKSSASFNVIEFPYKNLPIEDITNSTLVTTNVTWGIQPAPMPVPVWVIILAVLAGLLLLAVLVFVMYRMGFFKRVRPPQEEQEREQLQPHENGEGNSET
human integrin αvβ5, sequence (P18084 24-799): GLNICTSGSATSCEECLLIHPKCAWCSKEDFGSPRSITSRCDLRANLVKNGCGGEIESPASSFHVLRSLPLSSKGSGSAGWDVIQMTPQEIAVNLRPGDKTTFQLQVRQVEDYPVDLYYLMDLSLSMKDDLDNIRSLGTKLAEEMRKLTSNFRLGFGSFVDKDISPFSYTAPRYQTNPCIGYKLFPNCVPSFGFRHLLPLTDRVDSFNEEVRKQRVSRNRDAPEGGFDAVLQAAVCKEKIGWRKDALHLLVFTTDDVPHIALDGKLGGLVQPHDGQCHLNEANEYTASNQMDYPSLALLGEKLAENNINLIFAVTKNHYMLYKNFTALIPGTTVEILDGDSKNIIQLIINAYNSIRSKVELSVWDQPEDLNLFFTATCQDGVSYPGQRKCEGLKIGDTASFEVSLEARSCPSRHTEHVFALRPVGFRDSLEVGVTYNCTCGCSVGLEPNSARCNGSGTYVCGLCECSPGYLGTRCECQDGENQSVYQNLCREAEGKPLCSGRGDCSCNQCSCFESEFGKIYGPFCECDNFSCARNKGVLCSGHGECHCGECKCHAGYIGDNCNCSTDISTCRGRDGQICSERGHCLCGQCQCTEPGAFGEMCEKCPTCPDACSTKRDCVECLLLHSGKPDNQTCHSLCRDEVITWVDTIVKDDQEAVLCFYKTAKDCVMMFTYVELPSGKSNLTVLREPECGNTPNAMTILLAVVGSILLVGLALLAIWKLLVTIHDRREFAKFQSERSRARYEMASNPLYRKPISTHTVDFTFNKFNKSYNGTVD
In short: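 SPR with cyclic peptide amine-coupled via EDC/NHS to a CM5 chip, blank channel as reference. Integrin αvβ5 at 30, 100, 300 and 1,000 nM injected 10 min at 25 °C in HEPES buffer pH 7.4 with 5 mM MgCl2, 30 min buffer flow, EDTA regeneration; Kd from reference-subtracted signals, graded by category.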

[1] = Evaluation of molecule stability (alkali treatment, residual rate by LC/MS); assay type: physicochemical; conditions: 500 μM peptide aqueous solution plus equivalent of 1 M sodium hydroxide, 15° C., 3 hours, LC/MS peak area
In short: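 500 μM aqueous cyclic peptide mixed with an equal volume of 1 M NaOH and held 3 h at 15 °C. Residual rate is total LC/MS peak area after treatment relative to untreated (100%), using a C18 column, pH 3 ammonium formate/acetonitrile gradient, 45 °C, ESI±.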

Structure (SMILES) | Kd (human integrin αvβ5) [nM] | Performance evaluation: Stability (residual rate of cyclic peptide after alkali treatment) [1]
CC[C@H](C)[C@@H]1NC(=O)[C@@H](NC(=O)[C@H](CCCCN)NC(=O)[C@H](CCCCN)NC(=O)[C@@H](N)CCCCN)CCSCC(=O)NCC[C@@H](C(=O)O)NC(=O)[C@H](Cc2ccccc2)NC(=O)[C@H](C(C)C)NC(=O)[C@H](CC(=O)O)NC(=O)CNC(=O)[C@H](CCCNC(=N)N)NC(=O)[C@@H]2CCCN2C1=O [Cyclic peptide 65, KKK-(Hcy)-IPRGDVF(Dab(acetyl))] (H-KKK[hCys]IPRGDVF[Dab]-OH; linker 4-12 via X2) | 50 to 100 | A (The residual rate of the cyclic peptide is 70% or more.)
CC(C)[C@@H]1NC(=O)[C@H](CC(=O)O)NC(=O)CNC(=O)[C@H](CCCNC(=N)N)NC(=O)[C@@H]2CCCN2C(=O)[C@H](C(C)C)NC(=O)[C@@H](NC(=O)[C@H](CCCCN)NC(=O)[C@H](CCCCN)NC(=O)[C@@H](N)CCCCN)CCSCC(=O)NCC[C@@H](C(=O)O)NC(=O)[C@H](Cc2ccccc2)NC1=O [Cyclic peptide 66, KKK-(Hcy)-VPRGDVF(Dab(acetyl))] (H-KKK[hCys]VPRGDVF[Dab]-OH; linker 4-12 via X2) | < 50 | A (The residual rate of the cyclic peptide is 70% or more.)
CC[C@H](C)[C@@H]1NC(=O)[C@H](C)NC(=O)[C@@H](NC(=O)CNC(=O)[C@H](CCCCN)NC(=O)[C@H](CCCCN)NC(=O)[C@@H](N)CCCCN)CCSCC(=O)NCC[C@@H](C(=O)N[C@@H](C)C(=O)O)NC(=O)[C@H](C)NC(=O)[C@H](CCCNC(=N)N)NC(=O)[C@H](Cc2ccccc2)NC(=O)[C@H]([C@@H](C)O)NC(=O)[C@H](CC(=O)O)NC(=O)CNC(=O)[C@H](CCCNC(=N)N)NC(=O)[C@@H]2CCCN2C1=O [Cyclic peptide 67, KKKG-(Hcy)-AIPRGDTFRA(Dab(acetyl))A] (H-KKKG[hCys]AIPRGDTFRA[Dab]A-OH; linker 5-16 via X2) | < 50 | A (The residual rate of the cyclic peptide is 70% or more.)
C[C@H](NC(=O)[C@@H]1CCNC(=O)CSCC[C@H](NC(=O)CNC(=O)[C@H](CCCCN)NC(=O)[C@H](CCCCN)NC(=O)[C@@H](N)CCCCN)C(=O)N[C@@H](CCC(=O)O)C(=O)N2CCC[C@H]2C(=O)N[C@@H](CCCNC(=N)N)C(=O)NCC(=O)N[C@@H](CC(=O)O)C(=O)N[C@@H]([C@@H](C)O)C(=O)N[C@@H](Cc2ccccc2)C(=O)N[C@@H](CCCNC(=N)N)C(=O)N1)C(=O)O [Cyclic peptide 69, KKKG-(Hcy)-EPRGDTFR(Dab(acetyl))A] (H-KKKG[hCys]EPRGDTFR[Dab]A-OH; linker 5-14 via X2) | < 50 | A (The residual rate of the cyclic peptide is 70% or more.)
CC(C)[C@@H]1NC(=O)[C@@H](NC(=O)CNC(=O)[C@H](CCCCN)NC(=O)[C@H](CCCCN)NC(=O)[C@@H](N)CCCCN)CCSCC(=O)NCC[C@@H](C(=O)N[C@@H](C)C(=O)O)NC(=O)[C@H](CCCNC(=N)N)NC(=O)[C@H](Cc2ccccc2)NC(=O)[C@H]([C@@H](C)O)NC(=O)[C@H](CC(=O)O)NC(=O)CNC(=O)[C@H](CCCNC(=N)N)NC(=O)[C@@H]2CCCN2C1=O [Cyclic peptide 70, KKKG-(Hcy)-VPRGDTFR(Dab(acetyl))A] (H-KKKG[hCys]VPRGDTFR[Dab]A-OH; linker 5-14 via X2) | < 50 | A (The residual rate of the cyclic peptide is 70% or more.)
CC(C)C[C@@H]1NC(=O)[C@@H](NC(=O)CNC(=O)[C@H](CCCCN)NC(=O)[C@H](CCCCN)NC(=O)[C@@H](N)CCCCN)CCSCC(=O)NCC[C@@H](C(=O)N[C@@H](C)C(=O)O)NC(=O)[C@H](CCCNC(=N)N)NC(=O)[C@H](Cc2ccccc2)NC(=O)[C@H]([C@@H](C)O)NC(=O)[C@H](CC(=O)O)NC(=O)CNC(=O)[C@H](CCCNC(=N)N)NC(=O)[C@@H]2CCCN2C1=O [Cyclic peptide 71, KKKG-(Hcy)-LPRGDTFR(Dab(acetyl))A] (H-KKKG[hCys]LPRGDTFR[Dab]A-OH; linker 5-14 via X2) | < 50 | A (The residual rate of the cyclic peptide is 70% or more.)
CC[C@H](C)[C@@H]1NC(=O)[C@@H](NC(=O)CNC(=O)[C@H](CCCCN)NC(=O)[C@H](CCCCN)NC(=O)[C@@H](N)CCCCN)CCSCC(=O)NCC[C@@H](C(=O)N[C@@H](C)C(=O)O)NC(=O)[C@H](CCCNC(=N)N)NC(=O)[C@H](Cc2ccccc2)NC(=O)[C@H](CO)NC(=O)[C@H](CC(=O)O)NC(=O)CNC(=O)[C@H](CCCNC(=N)N)NC(=O)[C@@H]2CCCN2C1=O [Cyclic peptide 72, KKKG-(Hcy)-IPRGDSFR(Dab(acetyl))A] (H-KKKG[hCys]IPRGDSFR[Dab]A-OH; linker 5-14 via X2) | 50 to 100 | A (The residual rate of the cyclic peptide is 70% or more.)
CC(C)[C@@H]1NC(=O)[C@@H](NC(=O)[C@H](C)NC(=O)[C@H](CCCCN)NC(=O)[C@H](CCCCN)NC(=O)[C@@H](N)CCCCN)CCSCC(=O)NCC[C@@H](C(=O)N[C@@H](C)C(=O)O)NC(=O)[C@H](CCCNC(=N)N)NC(=O)[C@H](Cc2ccccc2)NC(=O)[C@H]([C@@H](C)O)NC(=O)[C@H](CC(=O)O)NC(=O)CNC(=O)[C@H](CCCNC(=N)N)NC(=O)[C@@H]2CCCN2C1=O [Cyclic peptide 74, KKKA-(Hcy)-VPRGDTFR(Dab(acetyl))A] (H-KKKA[hCys]VPRGDTFR[Dab]A-OH; linker 5-14 via X2) | < 50 | A (The residual rate of the cyclic peptide is 70% or more.)
C[C@H](NC(=O)[C@@H]1CCNC(=O)CSCC[C@H](NC(=O)[C@H](C)NC(=O)[C@H](CCCCN)NC(=O)[C@H](CCCCN)NC(=O)[C@@H](N)CCCCN)C(=O)N[C@@H]([C@@H](C)O)C(=O)N2CCC[C@H]2C(=O)N[C@@H](CCCNC(=N)N)C(=O)NCC(=O)N[C@@H](CC(=O)O)C(=O)N[C@@H]([C@@H](C)O)C(=O)N[C@@H](Cc2ccccc2)C(=O)N[C@@H](CCCNC(=N)N)C(=O)N1)C(=O)O [Cyclic peptide 75, KKKA-(Hcy)-TPRGDTFR(Dab(acetyl))A] (H-KKKA[hCys]TPRGDTFR[Dab]A-OH; linker 5-14 via X2) | < 50 | A (The residual rate of the cyclic peptide is 70% or more.)
CC[C@H](C)[C@@H]1NC(=O)[C@@H](NC(=O)[C@H](C)NC(=O)[C@H](CCCCN)NC(=O)[C@H](CCCCN)NC(=O)[C@@H](N)CCCCN)CCSCC(=O)NCC[C@@H](C(=O)N[C@@H](C)C(=O)O)NC(=O)[C@H](CCCNC(=N)N)NC(=O)[C@H](Cc2ccccc2)NC(=O)[C@H]([C@@H](C)O)NC(=O)[C@H](CC(=O)O)NC(=O)CNC(=O)[C@H](CCCNC(=N)N)NC(=O)[C@H]([C@@H](C)O)NC1=O [Cyclic peptide 76, KKKA-(Hcy)-ITRGDTFR(Dab(acetyl))A] (H-KKKA[hCys]ITRGDTFR[Dab]A-OH; linker 5-14 via X2) | 50 to 100 | A (The residual rate of the cyclic peptide is 70% or more.)
CC[C@H](C)[C@@H]1NC(=O)[C@@H](NC(=O)[C@H](C)NC(=O)[C@H](CCCCN)NC(=O)[C@H](CCCCN)NC(=O)[C@@H](N)CCCCN)CCSCC(=O)NCC[C@@H](C(=O)N[C@@H](C)C(=O)O)NC(=O)[C@H](CCCNC(=N)N)NC(=O)[C@H](Cc2ccccc2)NC(=O)[C@H]([C@@H](C)O)NC(=O)[C@H](CC(=O)O)NC(=O)CNC(=O)[C@H](CCCNC(=N)N)NC(=O)[C@H](CO)NC1=O [Cyclic peptide 77, KKKA-(Hcy)-ISRGDTFR(Dab(acetyl))A] (H-KKKA[hCys]ISRGDTFR[Dab]A-OH; linker 5-14 via X2) | < 50 | A (The residual rate of the cyclic peptide is 70% or more.)
CC[C@H](C)[C@@H]1NC(=O)[C@@H](NC(=O)[C@H](C)NC(=O)[C@H](CCCCN)NC(=O)[C@H](CCCCN)NC(=O)[C@@H](N)CCCCN)CCSCC(=O)NCC[C@@H](C(=O)N[C@@H](C)C(=O)O)NC(=O)[C@H](CCCNC(=N)N)NC(=O)[C@H](Cc2ccccc2)NC(=O)[C@H](C(C)C)NC(=O)[C@H](CC(=O)O)NC(=O)CNC(=O)[C@H](CCCNC(=N)N)NC(=O)[C@@H]2CCCN2C1=O [Cyclic peptide 78, KKKA-(Hcy)-IPRGDVFR(Dab(acetyl))A] (H-KKKA[hCys]IPRGDVFR[Dab]A-OH; linker 5-14 via X2) | < 50 | A (The residual rate of the cyclic peptide is 70% or more.)
CC[C@H](C)[C@@H]1NC(=O)[C@@H](NC(=O)[C@H](C)NC(=O)[C@H](CCCCN)NC(=O)[C@H](CCCCN)NC(=O)[C@@H](N)CCCCN)CCSCC(=O)NCC[C@@H](C(=O)N[C@@H](C)C(=O)O)NC(=O)[C@H](CCCNC(=N)N)NC(=O)[C@H](Cc2ccccc2)NC(=O)[C@H](C)NC(=O)[C@H](CC(=O)O)NC(=O)CNC(=O)[C@H](CCCNC(=N)N)NC(=O)[C@@H]2CCCN2C1=O [Cyclic peptide 79, KKKA-(Hcy)-IPRGDAFR(Dab(acetyl))A] (H-KKKA[hCys]IPRGDAFR[Dab]A-OH; linker 5-14 via X2) | 50 to 100 | A (The residual rate of the cyclic peptide is 70% or more.)
